Laboratory results as given in patent US20050215635A1, “Diarylheptanoid compounds and uses thereof” (priority 2004, published 2005).

Experiments:
[1] = system: TNF-α production from human PBMCs; experiment: TNF-α ELISA in supernatants of LPS-treated human PBMCs; type: cell-based; conditions: 18 hrs
Description: (§1) The PBMCs were separated from peripheral blood of normal healthy human volunteers. […] Supernatant was harvested after 18 hrs and stored at −70° C. until tested. The quantity of IL-1β and TNF-α present in supernatants was estimated by ELISA (R&D systems, MN, USA) following manufacturer's instruction. A standard curve was obtained by plotting known concentrations of recombinant human IL-1β and TNF-α vs absorbance at 450 nm.
(§2) Each data point represents mean+standard deviation (SD) of 3 replicates.

iNOS protein expression = experiment: Western blotting of iNOS protein expression in RAW 264.7 cells; type: cell-based, mouse; conditions: HMP 12.5 and 25 μM + LPS (0.5 μg/ml), RAW 264.7, 18 hrs
Description: FIG. 3. Inhibition of LPS induced iNOS and COX-2 protein expression by HMP. RAW 264.7 cells were treated with various concentrations of HMP and/or LPS (0.5 μg/ml) for 18 h. Total-cell lysate (40 μg) was resolved in 8-10% SDS-PAGE then transferred to PVDF membrane and detected with specific antibodies as described in Section 6. This experiment was repeated 4 times with similar observations. Lane-1, Control (without any treatment); 2, LPS (0.5 μg/ml); 3, LPS and HMP 25 μM; 4, LPS and HMP-12.5 μM.
(§3) At indicated time points, cells were rapidly washed with ice-cold PBS and solubilized in cold lysis buffer containing 10 mM Tris-base, 5 mM EDTA, 50 mM NaCl, 1% Triton X-100, 5 mM phenylmethylsulfonyl fluoride (PMSF), 2 mM sodium orthovanadate, 10 μg/ml leupeptin, 25 μg/ml aprotinin, 1 mM sodium pyrophosphate, and 20% glycerol. […]
(§4) Equal amount of protein (40 μg) from each sample was loaded on SDS-polyacrylamide electrophoresis gel (8 and 10% separating gels for iNOS and p42/44^MAPK, respectively) and resolved for 1.5 h at 120 V in buffer containing 95 mM Tris-HCl, 960 mM glycine, and 0.5% SDS. […] Specific bands were detected by enhanced chemiluminescence's detection system (Amersham-Pharmacia biotech, NJ, USA) and the membrane was exposed to X-ray film. […]

[2] = system: Mouse macrophage cell line RAW 264.7; experiment: MTT assay, RAW 264.7 cell viability; type: cell-based; conditions: HMP 6.25 μM-25 μM, 48 hrs
Description: MTT is a pale yellow substrate that is reduced by living cells to yield a dark blue formazan product. […] Mouse macrophage cell line RAW 264.7 were cultured in 96 well flat bottom plate at concentration of 0.25 million/ml and after 12 hrs of preconditioning, various concentrations of diarylheptanoid (HMP) was added and further cultured for 48 hrs. Thereafter, culture medium was aspirated and 100 μl of MTT dye (1 mg/ml in PBS) was added and further incubated for 4 hrs at 37° C. The formazan crystals made due to dye reduction by viable cells were dissolved using acidified isopropanol (0.1 N HCl). Index of cell viability was calculated by measuring the optical density of color produced by MTT dye reduction at 570 nm.

[3] = system: p44/42 MAPK phosphorylation; experiment: Western blotting of LPS induced phosphorylation of p44/42 MAPK in RAW 264.7 cells; type: cell-based, mouse; conditions: HMP 25 μM + LPS (0.5 μg/ml), RAW 264.7, 30 min (not at 60 min)
Description: FIG. 5A and 5B. Effect of HMP on LPS induced MAPKs activation. FIG. 5A, Total protein lysates of RAW 264.7 were prepared after treatment with HMP and/or LPS for indicated times and 40 μg of protein lysates were resolved and probed for phosphorylated (pp44/42 and pp38) and basal p44/42 and p38, using specific monoclonal antibodies as described in material and methods. FIG. 5B, Integrated density of phosphorylated p44/42 (pp44/42) as measured by Scion software. This experiment was repeated 4 times with similar results.
as §3, §4

[4] = system: IL-1β production from human PBMCs; experiment: IL-1β ELISA in supernatants of LPS-treated human PBMCs; type: cell-based; conditions: 18 hrs
Description: as §1, §2

## COc1cc(CC/C=C/C(=O)CCc2ccccc2)ccc1O [AO-4, 7-(4″-hydroxy-3″-methoxyphenyl)-1-phenyl-hept-4-en-3-one]
[1]; HMP 6.25 μM + LPS (10 ng/ml)
  TNF-α: 342.24 ± 11.50 pg/mL
[1]; HMP 6.25 μM alone, detection limit 15.62 pg/ml
  TNF-α: <15.62 pg/mL
[1]; HMP 12.5 μM + LPS (10 ng/ml)
  TNF-α: 298.49 ± 5.47 pg/mL
[1]; HMP 12.5 μM alone, detection limit 15.62 pg/ml
  TNF-α: <15.62 pg/mL
[1]; HMP 25 μM + LPS (10 ng/ml)
  TNF-α: 165.38 ± 8.48 pg/mL
[1]; HMP 25 μM alone, detection limit 15.62 pg/ml
  TNF-α: <15.62 pg/mL
[1]; HMP 6.25-25 μM + LPS
  inhibition of LPS induced TNF-α (in words): only at 25 μM concentration
iNOS protein expression
  LPS induced iNOS protein expression (Western blot, in words): markedly inhibited
[2]
  cytotoxic effect on RAW 264.7 cells (cell viability, MTT): almost no cytotoxic effect
[3]
  LPS-induced phosphorylation of p44/42 MAPK (in words): markedly inhibited
[4]; HMP 6.25 μM + LPS (10 ng/ml)
  IL-1β: 339.21 ± 10.53 pg/mL
[4]; HMP 6.25 μM alone
  IL-1β: 22.12 ± 3.33 pg/mL
[4]; HMP 12.5 μM + LPS (10 ng/ml)
  IL-1β: 113.43 ± 3.81 pg/mL
[4]; HMP 12.5 μM alone
  IL-1β: 24.45 ± 1.03 pg/mL
[4]; HMP 25 μM + LPS (10 ng/ml)
  IL-1β: 77.27 ± 4.6 pg/mL
[4]; HMP 25 μM alone
  IL-1β: 23.28 ± 1.41 pg/mL
[4]; HMP 6.25-25 μM + LPS
  LPS induced secretion of IL-1β (in words): significantly in dose dependent fashion
